Data from patent US20200179339A1, “PHARMACEUTICALS COMPOSITIONS FOR TREATMENT OF ATOPIC DERMATITIS” (CADILA HEALTHCARE LIMITED, priority 2018, published 2020).

Key:
[1] = tested on: oxazolone induced atopic dermatitis in mice; assay: Ear thickness in oxazolone induced atopic dermatitis in mice; assay type: in vivo, female balb/c mice; parameters: Change in ear thickness: unit not given beside the values; conditions: for percentage inhibition in ear thickness (atopic dermatitis): topical; for % change: topical day 5 and day 6, ear thickness vs vehicle control; for Change in ear thickness: topical on left ear day 5 and day 6
Experimental: (§1) The 7-8 week old female balb/c mice used for the study were divided into four groups of six mice each. Animal shaved on their abdomen region. On day-1, Oxazolone (Sigma chemical Co. USA) was dissolved in ethanol and applied at a dose volume is 500 ug/100 μl/mouse on shaved abdomen side as sensitized dose. On day 5, basal ear thickness was measured and oxazolone (dissolved in acetone, (100 μg/20 μl)) applied on left side ear at a dose volume of 20 μl/mouse on day 5 and day 6. Post Two hours of oxazolone application, treatment drugs applied on left ear respectively. Treatment was applied on day 5 and day 6 and ear thickness was measured on day 5 (basal), day 6 and day 7.
All animals were assessed for the ear thickness measurement. Animals were sacrificed on day 7, Ear weight were taken and ear were collected for histology and gene expression.
as §1, with “into five” for “into four”, “20 μ/mouse” for “20 μl/mouse”
All animals were assessed for the ear thickness measurement. Animals were sacrificed on day 7, Ear weight were taken.

[2] = tested on: cyclo-oxygenase enzymes (COX); conditions: background statement; cited from earlier work
[3] = Study-1, text, Apremilast 3%, Diclofenac 1.5%
[4] = Study-1, Apremilast 3%, Diclofenac 1.5%
[5] = Study-1, Apremilast 3%, Diclofenac 1.5%, vehicle control 0.3
[6] = Study-2, text, Apremilast 1%, Diclofenac 1%
[7] = Study-2, Apremilast 1%, Diclofenac 1%
[8] = Study-2, Apremilast 1%, Diclofenac 1%, vehicle control 0.44

Compound | percentage inhibition in ear thickness (atopic dermatitis) [1, 3] [%] | % change [1, 4] [%] | Change in ear thickness [1, 5] | percentage inhibition in ear thickness (atopic dermatitis) [1, 6] [%] | % change [1, 7] [%] | Change in ear thickness [1, 8] | approximate relative COX-1/COX-2 specificity ratio [2]
CCOc1cc([C@@H](CS(C)(=O)=O)N2C(=O)c3cccc(NC(C)=O)c3C2=O)ccc1OC [Apremilast, (+)-2-[1-(3-ethoxy-4-methoxyphenyl)-2-methanesulfonylethyl]-4-acetylaminoisoindolin-1,3-dione] | 38 | 38.6 | 0.18 | 45 | 45.1 | 0.24 | –
O=C([O-])Cc1ccccc1Nc1c(Cl)cccc1Cl.[Na+] [Diclofenac, sodium salt of [2-(2,6-Dichloroanilino)phenyl]acetic acid] | 64 | 63.8 | 0.11 | 37 | 36.8 | 0.28 | one
